Results on one compound are retold here after US8703438B2, “Ligand binding stabilization method for drug target identification” (The Regents of the University of California, priority 2008, dated 2014).

For one experiment, the system named is C. elegans N2 worms. Briefly: C. elegans lifespan analysis. The experiment is classed as in vivo. The note with it: resveratrol 50 μM. The text has this:
(§1) FIG. 4A: Chemical structure of resveratrol. FIG. 4B: Yeast cell lysates and human HeLa cell lysates were each treated with resveratrol in vitro followed by thermolysin digestion and silver staining. Protected bands of similar size were detected. FIG. 4C: Resveratrol protects TAP-tagged eIF4A, but not an unrelated Htb2, protein from proteolysis. Arrow: protein protected from subtilisin proteolysis (H. sapiens (SEQ ID NO:1), M. musculus (SEQ ID NO:2), X. laevis (SEQ ID NO:3), D. melanogaster (SEQ ID NO:4), C. elegans (SEQ ID NO:5), S. purpuratus (SEQ ID NO:6), C. reinhardtii (SEQ ID NO:7), A. thaliana (SEQ ID NO:8), H. andersenii (SEQ ID NO:9), S. cerevisiae (SEQ ID NO:10)). FIG. 4D: Resveratrol inhibits eIF4A-dependent translation in HEK 293 cells as assayed by bicistronic translation reporters. […] FIG. 4E: eIF4A is required for longevity in resveratrol-treated animals. Resveratrol (50 μM) lengthens the lifespan of wild-type N2 worms fed control (gfp) RNAi (green), but not worms fed eIF4A (inf-1) RNAi (red) or daf-16 RNAi (blue). gfp(RNAi), mVeh=19 (n=74), mRSV=20 (n=78), P=0.0006***; inf-1(RNAi), mVeh=26 (n=76), mRSV=24 (n=79), P=0.4687; daf-16(RNAi), mVeh=17 (n=78), mRSV=17 (n=76), P=0.3305. m, mean lifespan (days of adulthood); n, number of animals tested.
N2 wild-type strains were maintained at 20° C. on standard nematode growth medium (NGM) seeded with E. coli OP50 as described (Brenner (1974) Genetics 77: 71-94). E. coli RNAi strains were obtained from Open Biosystems; clones were verified by sequencing. To make NGM plates containing resveratrol or vehicle, 240 μl of a solution containing 2.5 mM resveratrol (or the equivalent amount of ethanol, for vehicle control), 20% DMSO, 20% ethanol, 10% phosphate buffered saline (PBS), and 50% ddH20 were spread on top of the NGM plate, making a 50 μM final concentration of resveratrol in the plate. Resveratrol was dissolved in 95% ethanol and stored in 4° C.
Lifespan analysis was conducted with N2 worms at 20° C. Eggs were added to NGM plates containing OP50. […]

The test system of experiment [1] is eIF4A-dependent translation in HEK 293 cells. The experiment in a line: In vivo translation assay with bicistronic dual-luciferase reporters. The format is cell-based, human. The following applies: HEK293, Dual-Glo.
Source text: as §1
The molecular mechanisms underlying resveratrol's lifespan effect have been controversial (Howitz et al. (2003) Nature 425: 191-196; Kaeberlein et al. (2005) J Biol Chem 280: 17038-17045), and whether Sir2 serves as a direct target for resveratrol is an interesting problem that is being pursued. […]
HEK293 cells in DMEM+10% FBS were pre-treated with 50 μM resveratrol for 1 hr, and transfected with bicistronic translation reporter plasmids using LipoD293 DNA in vitro transfection reagent (SignaGen). […] Reporter activity was measured 33 hr post-transfection using the Dual-Glo luciferase assay system (Promega) with an Analyst HT plate reader (Molecular Devices). […]

The subject of experiment [2] is yeast (wild type, tif1 or tif2 deletion mutants). Briefly: Yeast growth inhibition. The following applies: final concentration ˜1 mM. The format is cell-based. The text has this: For cytotoxic and cytostatic small molecules, deletion mutants in their target often would have increased sensitivity to the drug (and overexpression could decrease sensitivity). Indeed, this is the basis for the elegant haploinsufficiency profiling (HIP) strategy (Giaever et al. (1999) Nat Genet. 21: 278-283). However, an inherent limitation of this type of fitness-based methods is that they are applicable only to drugs that affect cell growth/viability, i.e., cytotoxic or cytostatic drugs. […] A key advantage of DARTS is that it is independent of the drug's biological phenotype, and thus is not limited to the studies of cytotoxic/cytostatic drugs or drugs that induce transcriptional or morphological changes which have been the limitation of previous methods.

For experiment [3], the target named is T1, in vitro translated firefly luciferase (Photinus pyralis, UniProt P08659).
T1 construct: made in house
T1 sequence (P08659 whole entry): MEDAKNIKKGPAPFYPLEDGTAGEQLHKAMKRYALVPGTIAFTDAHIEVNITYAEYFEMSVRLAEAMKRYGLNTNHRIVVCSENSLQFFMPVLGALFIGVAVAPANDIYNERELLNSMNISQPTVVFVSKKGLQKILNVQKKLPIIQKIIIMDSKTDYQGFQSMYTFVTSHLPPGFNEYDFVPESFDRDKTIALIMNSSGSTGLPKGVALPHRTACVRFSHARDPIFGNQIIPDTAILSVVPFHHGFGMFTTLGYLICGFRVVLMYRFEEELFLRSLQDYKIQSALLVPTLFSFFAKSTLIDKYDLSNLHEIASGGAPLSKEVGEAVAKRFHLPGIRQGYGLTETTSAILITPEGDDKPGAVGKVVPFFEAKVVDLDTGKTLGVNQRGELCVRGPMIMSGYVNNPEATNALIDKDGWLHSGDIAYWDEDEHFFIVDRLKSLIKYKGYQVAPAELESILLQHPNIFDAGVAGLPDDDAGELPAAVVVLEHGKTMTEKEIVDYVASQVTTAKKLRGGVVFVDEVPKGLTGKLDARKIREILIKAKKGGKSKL
Briefly: Effect on firefly luciferase reaction in luciferase assay kits. The format is biochemical. The text has this: Our data in FIG. 4D were based on the Dual-Glo kit, in which the luciferase reaction is not affected by resveratrol. Also, there was no resveratrol added to the in vitro luciferase assay reactions in FIG. 4D. Rather, resveratrol was used to treat cells and washed away before the cells were lysed for luciferase assay.

Molecules are shown by their SMILES.

As to `Oc1ccc(C=Cc2cc(O)cc(O)c2)cc1` [resveratrol], the mean lifespan with C. elegans N2 worms (N2 worms fed daf-16(RNAi), vehicle 17, P=0.3305) is recorded as 17 days of adulthood; in the experiment on C. elegans N2 worms (N2 worms fed gfp(RNAi) control, vehicle 19, P=0.0006), 20 days of adulthood; in the experiment on C. elegans N2 worms (N2 worms fed inf-1(RNAi) (eIF4A), vehicle 26, P=0.4687), 24 days of adulthood. In experiment [1], the “translation from the eIF4A-independent HCV IRES” value was “unaffected”. Further, the “EMCV IRES-mediated translation” value in experiment [1] (requires eIF4A) is “inhibited in a dose-dependent manner”. Further, the cap-dependent translation result in experiment [1] (requires eIF4A) is given as “inhibited in a dose-dependent manner”. For the same compound, in experiment [2], the “inhibition of yeast growth” value was “did not cause detectable inhibition of yeast growth”. Further, the firefly luciferase readout result in experiment [3] (Bright-Glo kit (Promega #E2610)) is listed as “significantly decreased”; in experiment [3] (Dual-Glo kit (Promega #E2940)) it was “little or no inhibition”.
